Source: EPA's ToxValDB 9.5 (doi:10.2903/j.efsa.2016.4609)
Values after ≈ are worked out from the molar mass of the structure shown.

Legend:
Rattus norvegicus = details: for NOAEL: gavage
Pimephales promelas = details: chronic/long-term; duration: 56 days; mortality
Oryctolagus sp. = details: developmental; development
Tagia sp. = details: chronic/long-term; mortality
Apis mellifera = details: acute, duration: 48 hours, mortality
Neomysis kadiakensis = details: chronic/long-term; duration: 28 days; reproduction
Ictalurus punctatus = details: acute; duration: 96 hours; mortality
[1] = chronic, duration: 2 years, histopathology: neoplastic

Row | Structure (SMILES) | NOAEL (Rattus norvegicus; short-term, duration: 28 days, oral, Wistar) [mg/kg-day] | NOAEL (Rattus norvegicus; subchronic, duration: 90 days, oral, hematological) [mg/kg-day] | NOEC (Pimephales promelas) [mg/L] | LOAEL (Oryctolagus sp.) [mg/kg-day] | LD50 (Colinus virginianus; acute, oral, mortality) [mg/kg-day] | NOEL (Colinus virginianus; reproduction developmental) [mg/kg-day] | NOEC (Tagia sp.) [mg/kg] | LD50 (Rattus norvegicus; acute, oral, mortality) [mg/kg-day] | LOAEL (Rattus norvegicus; [1]) [mg/kg-day] | LOAEL (Rattus norvegicus; reproduction developmental, reproduction) [mg/kg-day] | LD50 (Apis mellifera; dermal) [µg/piece] | LD50 (Apis mellifera; oral, unspecified) [µg/piece] | NOEC (Neomysis kadiakensis) [mg/L] | LC50 (Ictalurus punctatus) [mg/L]
1 | NC(CCC(=O)Nc1cc(Cl)cc(Cl)c1)C(=O)O (stereo unspecified) [N-(3,5-Dichlorophenyl)glutamine] | 7.5 | 1 | – | – | – | – | – | – | – | – | – | – | – | –
2 | CC(C)NC(=O)N1CC(=O)N(c2cc(Cl)cc(Cl)c2)C1=O | – | – | 0.0731 | 20 | 3780 | 22.3 | 1000 | > 2000 | 6.1 | 26.9 | > 100 | > 100 | 0.0075 | 3.1 (≈ 9.39 µM)
3 | NC(=O)NC(=O)Nc1cc(Cl)c(O)c(Cl)c1 [N-(3,5-Dichloro-4-hydroxyphenyl)-2-imidodicarbonic diamide] | – | – | – | 20 | – | – | – | – | 6.1 | – | – | – | – | –
